Among the data in article PMC6792352, “Limited Chemical Structural Diversity Found to Modulate Thyroid Hormone Receptor in the Tox21 Chemical Library” (Environmental Health Perspectives, 2019) are CC50 values, retold here.

Each structure is given as a SMILES string.

The nature of the first data set: in vitro. The note with it: rat, gh3-tre-luc cells, AC50 (uM) modified / 1000.
With `O=C1OC(=O)c2cc(-c3ccc4c(c3)C(=O)OC4=O)ccc21` [5,5'-Bi-2-benzofuran-1,1',3,3'-tetrone], the half-maximal cytotoxic concentration (CC50) at 24 h was > 90 µM. `O=C1OC(=O)c2cc(Oc3ccc4c(c3)C(=O)OC4=O)ccc21` [5,5'-Oxybis(2-benzofuran-1,3-dione)]: the CC50 at 24 h is > 90 µM. `CC1(C)C(=O)NC(=O)NC1=O` [5,5-Dimethylbarbituric acid]: the 50% cytotoxic concentration (CC50) at 24 h is > 90 µM. Still for that read-out and setting: to `CC1(C)NC(=O)NC1=O` [5,5-Dimethylhydantoin] belongs > 90 µM. With `O=C1NC(=O)C(c2ccccc2)(c2ccccc2)N1` [5,5-Diphenylhydantoin], the CC50 at 24 h was > 90 µM. In the case of `c1cnc2c(n1)CCCC2` [5,6,7,8-Tetrahydroquinoxaline], the CC50 at 24 h was > 90 µM. `O=c1cc(-c2ccccc2)oc2ccc3ccccc3c12` [5,6-Benzoflavone]: the CC50 at 24 h is > 90 µM. On the same count and under the same terms, to `Cc1cc(=O)oc2cc(O)cc(O)c12` [5,7-Dihydroxy-4-methylcoumarin] belongs > 90 µM. On to `COc1cc(OC)c2ccc(=O)oc2c1` [5,7-Dimethoxy-2H-chromen-2-one], for which the CC50 at 24 h was > 90 µM. In turn, `O=c1[nH]nc(-c2ccc([N+](=O)[O-])o2)o1` [5-(5-Nitro-2-furyl)-1,3,4-oxadiazole-2-ol] showed a CC50 at 24 h of 67.5 µM. Regarding `O=Cc1ccc(CO)o1` [5-(Hydroxymethyl)-2-furfural], the CC50 at 24 h was > 90 µM. On the same count and under the same terms, to `O=C(O)c1ccc(CO)o1` [5-(Hydroxymethyl)-2-furoic acid] belongs > 90 µM; to `O=C(O)CNC(=O)c1ccc(CO)o1` [5-(Hydroxymethyl-2-furoyl)glycine], > 90 µM.

On to `O=c1[nH]cnc2[nH]cc(CN3CCCCC3)c12` [5-(Piperidin-1-ylmethyl)-3,7-dihydro-4H-pyrrolo[2,3-d]pyrimidin-4-one], for which the cytotoxic concentration (CC50) at 24 h was > 50 µM.

`CC(=O)c1sc(C)nc1C` [5-Acetyl-2,4-dimethylthiazole]: the 50% cytotoxic concentration (CC50) at 24 h is > 90 µM. For `Nc1nnc(S)[nH]1` [5-Amino-1,2-dihydro-3H-1,2,4-triazole-3-thione], the CC50 at 24 h was > 90 µM. With `Cc1ccc(N)cc1S(=O)(=O)O` [5-Amino-2-methylbenzenesulfonic acid], the CC50 at 24 h is > 90 µM. The same measure, in the same setting: under `Cc1ccc(N)cc1O` [5-Amino-2-methylphenol] stands > 90 µM; under `Nc1cc(C(=O)O)c(O)c(S(=O)(=O)O)c1` [5-Amino-3-sulfosalicylic acid], > 90 µM. `Nc1ccc(O)c(C(=O)O)c1` [5-Aminosalicylic acid]: the half-maximal cytotoxic concentration (CC50) at 24 h is > 50 µM.

For `O=c1[nH]c(=O)n([C@H]2C[C@H](O)[C@@H](CO)O2)cc1Br` [5-Bromo-2'-deoxyuridine], the CC50 at 24 h was > 90 µM. In turn, `O=[N+]([O-])C1(Br)COCOC1` [5-Bromo-5-nitro-1,3-dioxane] gave a CC50 at 24 h of 11.8 µM.

Consider `Cc1nc2cc(Cl)ccc2[nH]1` [5-Chloro-2-methyl-1H-benzimidazole], for which the half-maximal cytotoxic concentration (CC50) at 24 h is > 90 µM. Compound `Cn1sc(Cl)cc1=O` [5-Chloro-2-methyl-3(2H)-isothiazolone] returned a CC50 at 24 h of 65.6 µM. The same measure, in the same setting: to `Cc1ccc(Cl)cc1N` [5-Chloro-2-methylaniline] belongs > 90 µM.

Regarding `Clc1ccc2[nH]nnc2c1` [5-Chlorobenzotriazole], the cytotoxic concentration (CC50) at 24 h is > 90 µM. On the same count and under the same terms, under `O=C(Nc1ccccc1)c1cc(Cl)ccc1O` [5-Chlorosalicylanilide] stands 7.85 µM; under `O=C1CCCC=CCCCCCCCCCC1` [5-Cyclohexadecen-1-one], 74.1 µM; under `CCc1cnc(C(=O)O)c(C(=O)O)c1` [5-Ethyl-2,3-pyridinedicarboxylic acid], > 100 µM. As to `CCC1(C)NC(=O)NC1=O` (centres unmarked) [5-Ethyl-5-methylhydantoin], the CC50 at 24 h is > 90 µM. On the same count and under the same terms, under `CC=C1CC2C=CC1C2` (centres unmarked) [5-Ethylidene-2-norbornene] stands > 90 µM.

The same data set, now with this note: rat, gh3-tre-luc cells, AC50 (uM) modified / 1000, Tox21_110001=Tox21_201057; viability, 1 nM T3 present, 24 h.
For `c1cc2c3c(c1)ccc1cccc(c13)C2` [4H-Cyclopenta(def)phenanthrene], the 50% cytotoxic concentration (CC50) at 24 h was > 90 µM.

By CC50 is commonly meant the concentration that lowers cell viability or growth by half. Low readings indicate greater toxicity to the cells, high ones lower toxicity to the cells.
